Literature values, collected in PMC10893631, “Receptor-based pharmacophore modeling, molecular docking, synthesis and biological evaluation of novel VEGFR-2, FGFR-1, and BRAF multi-kinase inhibitors” (BMC Chemistry, 2024).

Biological target: T1, VEGFR-2 (Homo sapiens, UniProt P35968)
T1 construct: purchased BPS Biosciences 40325
Parameters: method as in PMID 17696416
Conditions: cited from earlier work

T1 sequence (P35968 20-1356): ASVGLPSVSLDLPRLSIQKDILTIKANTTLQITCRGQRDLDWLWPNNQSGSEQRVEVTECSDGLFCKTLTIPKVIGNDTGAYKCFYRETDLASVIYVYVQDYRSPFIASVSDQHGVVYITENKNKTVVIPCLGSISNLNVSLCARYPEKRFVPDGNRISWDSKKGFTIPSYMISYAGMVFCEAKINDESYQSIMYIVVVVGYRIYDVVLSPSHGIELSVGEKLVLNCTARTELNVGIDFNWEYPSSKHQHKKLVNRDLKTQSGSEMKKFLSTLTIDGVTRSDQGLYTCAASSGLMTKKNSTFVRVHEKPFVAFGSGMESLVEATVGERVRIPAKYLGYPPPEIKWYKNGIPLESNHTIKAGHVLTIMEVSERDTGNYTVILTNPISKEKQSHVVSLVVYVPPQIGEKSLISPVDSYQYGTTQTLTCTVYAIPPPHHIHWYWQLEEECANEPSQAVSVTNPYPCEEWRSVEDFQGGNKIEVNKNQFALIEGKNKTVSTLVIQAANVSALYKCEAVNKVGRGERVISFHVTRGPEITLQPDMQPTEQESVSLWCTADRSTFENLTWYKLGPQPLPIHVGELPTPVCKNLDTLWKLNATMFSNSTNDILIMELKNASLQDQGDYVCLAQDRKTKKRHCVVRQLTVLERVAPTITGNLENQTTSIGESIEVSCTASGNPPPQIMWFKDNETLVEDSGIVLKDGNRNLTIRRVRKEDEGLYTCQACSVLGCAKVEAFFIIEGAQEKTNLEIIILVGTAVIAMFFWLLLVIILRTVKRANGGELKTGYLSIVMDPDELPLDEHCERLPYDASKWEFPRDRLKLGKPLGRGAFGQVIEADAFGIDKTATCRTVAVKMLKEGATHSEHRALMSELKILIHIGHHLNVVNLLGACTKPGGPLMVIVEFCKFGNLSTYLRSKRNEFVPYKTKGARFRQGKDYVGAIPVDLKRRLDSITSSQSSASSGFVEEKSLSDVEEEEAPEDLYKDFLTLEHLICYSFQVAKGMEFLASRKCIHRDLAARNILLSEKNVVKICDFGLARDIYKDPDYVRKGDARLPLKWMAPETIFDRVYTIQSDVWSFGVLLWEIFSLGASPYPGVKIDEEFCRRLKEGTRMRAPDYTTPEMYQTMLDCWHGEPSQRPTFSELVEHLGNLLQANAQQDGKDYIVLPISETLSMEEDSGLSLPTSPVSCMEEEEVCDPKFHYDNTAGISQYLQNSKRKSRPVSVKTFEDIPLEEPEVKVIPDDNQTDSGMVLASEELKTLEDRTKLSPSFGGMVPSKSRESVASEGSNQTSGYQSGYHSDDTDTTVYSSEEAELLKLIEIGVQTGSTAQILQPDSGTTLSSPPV

## CNC(=O)c1cc(Oc2ccc3[nH]c(Nc4ccc(C(F)(F)F)c(Cl)c4)nc3c2)ccn1 [II]
  Ki: 8.7 nM
